Results published in patent US20100130477A1, “Spirocyclobutyl Piperidine Derivatives” (ASTRAZENECA AB, priority 2008, published 2010).

Target: T1, human Histamine H3 receptor (hH3R) (Homo sapiens, UniProt Q9Y5N1)
T1 construct: expressed in transfected cells; host or cells: CHO cells (Chinese Hamster Ovary); membranes
Experiment: GTPγS Binding Assay (antagonist activity, [35S]GTPγS, (R)-α-methyl histamine 30 nM)
Type: biochemical
Conditions: membranes from CHO cells expressing hH3R, 90 minutes at room temperature
Experimental: Guanosine 5′-O-(3-[^35S]thio)triphosphate [GTPγS] Binding Assay
A GTPγS binding assay can be used to investigate antagonist properties of compounds in CHO cells (Chinese Hamster Ovary) transfected with human Histamine H3 receptor (hH3R). Membranes from CHO cells expressing hH3R (10 μg/well) are diluted in GTPγS assay buffer (20 mM Hepes, 10 mM MgCl2, 100 mM NaCl, pH 7.4) and preincubated with saponine (3 μg/ml), GDP (10 μM) and PVT-WGA SPA beads (125 μg/well) (Amersham) for 30 minutes. To determine antagonist activity, (R)-α-methyl histamine (30 nM) is added in 96 well SPA plate with [^35S]GTPγS (0.2 nM) and various concentration of H3R antagonists. The GTPγS binding assay is started with addition of the mixture membrane/saponine/GDP and incubated for 90 minutes at room temperature. The amount of bound [^35S]GTPγS is determined by using the MicroBeta Trilux counter (PerkinElmer). The percentage of [^35S]GTPγS bound in each sample is calculated as a percentage of that bound control sample incubated in absence of H3 antagonist. Duplicate determinations are obtained for each concentration, and the data are analyzed using ExcelFit4 to obtain the IC50.

T1 sequence (Q9Y5N1 whole entry): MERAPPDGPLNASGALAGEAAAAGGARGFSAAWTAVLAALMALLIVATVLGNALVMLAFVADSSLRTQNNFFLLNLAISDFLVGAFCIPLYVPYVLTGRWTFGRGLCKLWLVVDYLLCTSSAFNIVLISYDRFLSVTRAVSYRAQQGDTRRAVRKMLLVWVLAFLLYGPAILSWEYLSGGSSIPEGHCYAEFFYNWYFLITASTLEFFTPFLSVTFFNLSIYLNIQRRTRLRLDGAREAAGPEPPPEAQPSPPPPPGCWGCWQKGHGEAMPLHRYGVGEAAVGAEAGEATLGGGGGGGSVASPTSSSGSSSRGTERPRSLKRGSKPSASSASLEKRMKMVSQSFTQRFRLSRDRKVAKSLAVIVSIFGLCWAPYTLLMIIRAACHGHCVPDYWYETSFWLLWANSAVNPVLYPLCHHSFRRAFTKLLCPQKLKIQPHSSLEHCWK

SMILES	IC50 [nM]
O=C(Cc1ccncc1)N1CCC2(CC1)CC(C(=O)N1CCN(C3CCC3)CC1)C2 [Example 28, 1-(2-(4-cyclobutylpiperazine-1-carbonyl)-7-azaspiro[3.5]nonan-7-yl)-2-(pyridin-4-yl)ethanone]	13.8
CC(C)N1CCCN(C(=O)C2CC3(CCN(C(=O)N(C)C)CC3)C2)CC1 [Example 56, 2-(4-isopropyl-1,4-diazepane-1-carbonyl)-N,N-dimethyl-7-azaspiro[3.5]nonane-7-carboxamide]	269
C[C@H]1CN(C2CCC2)CCN1C(=O)C1CC2(CCN(S(C)(=O)=O)CC2)C1 [Example 63, ((S)-4-cyclobutyl-2-methylpiperazin-1-yl)(7-(methylsulfonyl)-7-azaspiro[3.5]nonan-2-yl)methanone]	21.2
O=C(CCc1ccncc1)N1CCC2(CC1)CC(C(=O)N1CCN(C3CCC3)CC1)C2 [Example 29, 1-(2-(4-cyclobutylpiperazine-1-carbonyl)-7-azaspiro[3.5]nonan-7-yl)-3-(pyridin-4-yl)propan-1-one]	19.7
CC(C)N1CCN(C(=O)C2CC3(CCN(C(=O)c4cccnc4)CC3)C2)CC1 [Example 36, (4-isopropylpiperazin-1-yl)(7-nicotinoyl-7-azaspiro[3.5]nonan-2-yl)methanone]	67.4
O=C(Cc1cccnc1)N1CCC2(CC1)CC(C(=O)N1CCN(C3CCC3)CC1)C2 [Example 27, 1-(2-(4-cyclobutylpiperazine-1-carbonyl)-7-azaspiro[3.5]nonan-7-yl)-2-(pyridin-3-yl)ethanone]	12.6

Next, values leading:

IC50 [nM]	SMILES
54	Cc1cccc(C(=O)N2CCC3(CC2)CC(C(=O)N2CCN(C4CCC4)CC2)C3)n1 [Example 18, (4-cyclobutylpiperazin-1-yl)(7-(6-methylpicolinoyl)-7-azaspiro[3.5]nonan-2-yl)methanone]
28.1	Cc1ncccc1C(=O)N1CCC2(CC1)CC(C(=O)N1CCN(C3CCC3)CC1)C2 [Example 13, (4-cyclobutylpiperazin-1-yl)(7-(2-methylnicotinoyl)-7-azaspiro[3.5]nonan-2-yl)methanone]
26.2	Cc1ccc(C(=O)N2CCC3(CC2)CC(C(=O)N2CCN(C4CCC4)CC2)C3)cn1 [Example 12, (4-cyclobutylpiperazin-1-yl)(7-(6-methylnicotinoyl)-7-azaspiro[3.5]nonan-2-yl)methanone]
7.62	N#Cc1cccc(C(=O)N2CCC3(CC2)CC(C(=O)N2CCCN(C4CCC4)CC2)C3)c1 [Example 50, 3-(2-(4-cyclobutyl-1,4-diazepane-1-carbonyl)-7-azaspiro[3.5]nonane-7-carbonyl)benzonitrile]
8.87	Cc1cc(C(=O)N2CCC3(CC2)CC(C(=O)N2CCCN(C4CCC4)CC2)C3)ccn1 [Example 43, (4-cyclobutyl-1,4-diazepan-1-yl)(7-(2-methylisonicotinoyl)-7-azaspiro[3.5]nonan-2-yl)methanone]
16.8	N#Cc1cnccc1C(=O)N1CCC2(CC1)CC(C(=O)N1CCN(C3CCC3)CC1)C2 [Example 64, 4-(2-(4-cyclobutylpiperazine-1-carbonyl)-7-azaspiro[3.5]nonane-7-carbonyl)nicotinonitrile]
707	Cc1cc(C(=O)N2CCC3(CC2)CC(C(=O)N2CCN(C4CCC4)CC(C)(C)C2)C3)ccn1 [Example 57, (4-cyclobutyl-6,6-dimethyl-1,4-diazepan-1-yl)(7-(2-methylisonicotinoyl)-7-azaspiro[3.5]nonan-2-yl)methanone]
48.4	O=C(c1ccccc1)N1CCC2(CC1)CC(C(=O)N1CCN(C3CCC3)CC1)C2 [Example 30, (7-benzoyl-7-azaspiro[3.5]nonan-2-yl)(4-cyclobutylpiperazin-1-yl)methanone]
21.8	Cc1cc(C(=O)N2CCC3(CC2)CC(C(=O)N2CCN(C4CCC4)CC2)C3)ccn1 [Example 24, (4-cyclobutylpiperazin-1-yl)(7-(2-methylisonicotinoyl)-7-azaspiro[3.5]nonan-2-yl)methanone]
